Data: paper PMC9506414, “Novel 2,6,9-Trisubstituted Purines as Potent CDK Inhibitors Alleviating Trastuzumab-Resistance of HER2-Positive Breast Cancers” (Pharmaceuticals, 2022)

Columns and labels:
Assay in all cases: Kinome-wide inhibition profiling
Format in all cases: biochemical
SBK1 = molecular target: T1, SBK1 (Homo sapiens, UniProt Q52WX2)
T1 construct: purchased Reaction Biology Corp
Method: (§1) In vitro CDK12/cyclinK assays for all compounds and in vitro kinome-wide inhibition profiling of 30d at 10 μM were performed by a CRO company (Reaction Biology Corp., San Diego, CA, USA).

MST1 = molecular target: T2, MST1 (Homo sapiens, UniProt Q13043)
T2 construct: purchased Reaction Biology Corp
Method: as §1

MYO3A = molecular target: T3, MYO3A (Homo sapiens, UniProt Q8NEV4)
T3 construct: purchased Reaction Biology Corp
Method: as §1

MLCK = molecular target: T4, MLCK (Homo sapiens, UniProt Q15746)
T4 construct: purchased Reaction Biology Corp
Method: as §1

CDK1/cyclinB = molecular target: T5, CDK1/cyclinB (Homo sapiens, UniProt P06493)
T5 construct: purchased Reaction Biology Corp
Method: as §1

CSNK1A1 = molecular target: T6, CSNK1A1 (Homo sapiens, UniProt P48729)
T6 construct: purchased Reaction Biology Corp
Method: as §1

MKK4 = molecular target: T7, MKK4 (Homo sapiens, UniProt P45985)
T7 construct: purchased Reaction Biology Corp
Method: as §1

ARAF = molecular target: T8, ARAF (Homo sapiens, UniProt P10398)
T8 construct: purchased Reaction Biology Corp
Method: as §1

NIM1 = molecular target: T9, NIM1 (Homo sapiens, UniProt Q8IY84)
T9 construct: purchased Reaction Biology Corp
Method: as §1

CHEK2 = molecular target: T10, CHEK2 (Homo sapiens, UniProt O96017)
T10 construct: purchased Reaction Biology Corp
Method: as §1

TAOK1 = molecular target: T11, TAOK1 (Homo sapiens, UniProt Q7L7X3)
T11 construct: purchased Reaction Biology Corp
Method: as §1

BRK = molecular target: T12, BRK (Homo sapiens, UniProt Q13882)
T12 construct: purchased Reaction Biology Corp
Method: as §1

FYN = molecular target: T13, FYN (Homo sapiens, UniProt P06241)
T13 construct: purchased Reaction Biology Corp
Method: as §1

MASTL = molecular target: T14, MASTL (Homo sapiens, UniProt Q96GX5)
T14 construct: purchased Reaction Biology Corp
Method: as §1

DRAK1 = molecular target: T15, DRAK1 (Homo sapiens, UniProt Q9UEE5)
T15 construct: purchased Reaction Biology Corp
Method: as §1

PAK5 = molecular target: T16, PAK5 (Homo sapiens, UniProt Q9P286)
T16 construct: purchased Reaction Biology Corp
Method: as §1

ROCK2 = molecular target: T17, ROCK2 (Homo sapiens, UniProt O75116)
T17 construct: purchased Reaction Biology Corp
Method: as §1

FRK = molecular target: T18, FRK (Homo sapiens, UniProt P42685)
T18 construct: purchased Reaction Biology Corp
Method: as §1

p70S6Kb/RPS6KB2 = molecular target: T19, p70S6Kb/RPS6KB2 (Homo sapiens, UniProt Q9UBS0)
T19 construct: purchased Reaction Biology Corp
Method: as §1

DMPK2 = molecular target: T20, DMPK2 (Homo sapiens, UniProt Q6DT37)
T20 construct: purchased Reaction Biology Corp
Method: as §1

DDR1 = molecular target: T21, DDR1 (Homo sapiens, UniProt Q08345)
T21 construct: purchased Reaction Biology Corp
Method: as §1

AKT2 = molecular target: T22, AKT2 (Homo sapiens, UniProt P31751)
T22 construct: purchased Reaction Biology Corp
Method: as §1

ARK5 = molecular target: T23, ARK5 (Homo sapiens, UniProt O60285)
T23 construct: purchased Reaction Biology Corp
Method: as §1

MEK3 = molecular target: T24, MEK3 (Homo sapiens, UniProt P46734)
T24 construct: purchased Reaction Biology Corp
Method: as §1

MST3 = molecular target: T25, MST3 (Homo sapiens, UniProt Q9Y6E0)
T25 construct: purchased Reaction Biology Corp
Method: as §1

PKCb1 = molecular target: T26, PKCb1 (Homo sapiens, UniProt P05771)
T26 construct: purchased Reaction Biology Corp
Method: as §1

NEK7 = molecular target: T27, NEK7 (Homo sapiens, UniProt Q8TDX7)
T27 construct: purchased Reaction Biology Corp
Method: as §1

IKK-alpha = molecular target: T28, IKK-alpha (Homo sapiens, UniProt O15111)
T28 construct: purchased Reaction Biology Corp
Method: as §1

PRKCG = molecular target: T29, PRKCG (Homo sapiens, UniProt P05129)
T29 construct: purchased Reaction Biology Corp
Method: as §1

MARK4 = molecular target: T30, MARK4 (Homo sapiens, UniProt Q96L34)
T30 construct: purchased Reaction Biology Corp
Method: as §1

NEK3 = molecular target: T31, NEK3 (Homo sapiens, UniProt P51956)
T31 construct: purchased Reaction Biology Corp
Method: as §1

YES = molecular target: T32, YES (Homo sapiens, UniProt P07947)
T32 construct: purchased Reaction Biology Corp
Method: as §1

EPHA3 = molecular target: T33, EPHA3 (Homo sapiens, UniProt P29320)
T33 construct: purchased Reaction Biology Corp
Method: as §1

MYLK3 = molecular target: T34, MYLK3 (Homo sapiens, UniProt Q32MK0)
T34 construct: purchased Reaction Biology Corp
Method: as §1

MERTK = molecular target: T35, MERTK (Homo sapiens, UniProt Q12866)
T35 construct: purchased Reaction Biology Corp
Method: as §1

DYRK1A = molecular target: T36, DYRK1A (Homo sapiens, UniProt Q13627)
T36 construct: purchased Reaction Biology Corp
Method: as §1

TRKB = molecular target: T37, TRKB (Homo sapiens, UniProt Q16620)
T37 construct: purchased Reaction Biology Corp
Method: as §1

LATS2 = molecular target: T38, LATS2 (Homo sapiens, UniProt Q9NRM7)
T38 construct: purchased Reaction Biology Corp
Method: as §1

IGF1R = molecular target: T39, IGF1R (Homo sapiens, UniProt P08069)
T39 construct: purchased Reaction Biology Corp
Method: as §1

SLK = molecular target: T40, SLK (Homo sapiens, UniProt Q9H2G2)
T40 construct: purchased Reaction Biology Corp
Method: as §1

NEK4 = molecular target: T41, NEK4 (Homo sapiens, UniProt P51957)
T41 construct: purchased Reaction Biology Corp
Method: as §1

ALK = molecular target: T42, ALK (Homo sapiens, UniProt Q9UM73)
T42 construct: purchased Reaction Biology Corp
Method: as §1

LIMK2 = molecular target: T43, LIMK2 (Homo sapiens, UniProt P53671)
T43 construct: purchased Reaction Biology Corp
Method: as §1

PLK3 = molecular target: T44, PLK3 (Homo sapiens, UniProt Q9H4B4)
T44 construct: purchased Reaction Biology Corp
Method: as §1

T5 sequence (P06493 whole entry): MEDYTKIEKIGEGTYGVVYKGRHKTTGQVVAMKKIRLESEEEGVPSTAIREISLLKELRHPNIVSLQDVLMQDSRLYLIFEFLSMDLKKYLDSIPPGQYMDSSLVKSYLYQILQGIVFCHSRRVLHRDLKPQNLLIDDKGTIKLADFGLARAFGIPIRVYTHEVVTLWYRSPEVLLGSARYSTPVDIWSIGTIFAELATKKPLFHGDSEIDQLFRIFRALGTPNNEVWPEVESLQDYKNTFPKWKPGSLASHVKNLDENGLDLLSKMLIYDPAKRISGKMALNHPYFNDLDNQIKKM
T5 sequence (P14635 whole entry partner): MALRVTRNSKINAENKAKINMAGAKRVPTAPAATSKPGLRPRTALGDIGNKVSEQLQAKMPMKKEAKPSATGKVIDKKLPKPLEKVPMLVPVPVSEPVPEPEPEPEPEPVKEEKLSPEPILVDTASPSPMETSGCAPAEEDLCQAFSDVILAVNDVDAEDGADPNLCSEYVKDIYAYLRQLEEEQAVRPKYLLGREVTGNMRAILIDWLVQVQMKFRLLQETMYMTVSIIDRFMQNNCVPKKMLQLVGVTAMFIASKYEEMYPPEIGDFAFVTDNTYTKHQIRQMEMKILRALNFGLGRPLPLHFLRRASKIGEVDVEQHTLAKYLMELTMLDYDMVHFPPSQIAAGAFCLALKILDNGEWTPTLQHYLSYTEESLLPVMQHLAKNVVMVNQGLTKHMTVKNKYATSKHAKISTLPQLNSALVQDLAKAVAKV
T34 sequence (Q32MK0 whole entry): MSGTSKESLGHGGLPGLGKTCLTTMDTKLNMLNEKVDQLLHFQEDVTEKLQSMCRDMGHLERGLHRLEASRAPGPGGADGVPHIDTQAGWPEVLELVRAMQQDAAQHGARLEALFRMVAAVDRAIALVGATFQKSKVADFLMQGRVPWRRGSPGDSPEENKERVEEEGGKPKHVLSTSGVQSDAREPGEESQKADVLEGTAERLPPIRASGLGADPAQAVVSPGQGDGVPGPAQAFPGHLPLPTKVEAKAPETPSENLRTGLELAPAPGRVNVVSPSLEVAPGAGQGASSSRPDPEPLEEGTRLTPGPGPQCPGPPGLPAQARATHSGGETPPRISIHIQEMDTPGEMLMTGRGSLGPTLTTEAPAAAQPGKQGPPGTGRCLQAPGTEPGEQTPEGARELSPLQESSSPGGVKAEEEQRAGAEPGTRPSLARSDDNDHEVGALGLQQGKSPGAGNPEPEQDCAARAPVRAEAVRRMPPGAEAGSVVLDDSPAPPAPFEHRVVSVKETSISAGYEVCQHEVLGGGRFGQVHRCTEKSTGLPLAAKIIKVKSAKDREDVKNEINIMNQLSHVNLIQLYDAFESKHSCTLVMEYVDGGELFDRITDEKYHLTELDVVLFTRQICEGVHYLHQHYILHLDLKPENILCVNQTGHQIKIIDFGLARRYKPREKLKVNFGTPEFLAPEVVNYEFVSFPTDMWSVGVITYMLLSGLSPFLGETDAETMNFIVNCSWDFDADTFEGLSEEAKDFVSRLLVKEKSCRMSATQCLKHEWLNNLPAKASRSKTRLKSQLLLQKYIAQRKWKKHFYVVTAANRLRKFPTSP
T32 sequence (P07947 whole entry): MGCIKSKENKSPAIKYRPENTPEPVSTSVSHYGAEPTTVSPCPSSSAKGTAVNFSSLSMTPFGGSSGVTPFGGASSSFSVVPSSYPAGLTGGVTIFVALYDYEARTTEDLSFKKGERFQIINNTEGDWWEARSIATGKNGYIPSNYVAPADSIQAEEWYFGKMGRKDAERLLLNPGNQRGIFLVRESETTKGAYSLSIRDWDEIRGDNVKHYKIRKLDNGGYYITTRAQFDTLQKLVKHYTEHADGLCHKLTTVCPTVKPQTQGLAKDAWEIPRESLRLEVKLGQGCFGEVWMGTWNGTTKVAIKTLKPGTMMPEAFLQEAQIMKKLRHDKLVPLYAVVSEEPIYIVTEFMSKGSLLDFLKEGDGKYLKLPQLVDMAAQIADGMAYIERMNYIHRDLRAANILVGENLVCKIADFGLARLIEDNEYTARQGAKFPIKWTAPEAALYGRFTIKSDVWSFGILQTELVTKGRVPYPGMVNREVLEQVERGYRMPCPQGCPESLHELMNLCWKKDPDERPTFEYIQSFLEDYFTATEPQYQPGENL
T42 sequence (Q9UM73 19-1620): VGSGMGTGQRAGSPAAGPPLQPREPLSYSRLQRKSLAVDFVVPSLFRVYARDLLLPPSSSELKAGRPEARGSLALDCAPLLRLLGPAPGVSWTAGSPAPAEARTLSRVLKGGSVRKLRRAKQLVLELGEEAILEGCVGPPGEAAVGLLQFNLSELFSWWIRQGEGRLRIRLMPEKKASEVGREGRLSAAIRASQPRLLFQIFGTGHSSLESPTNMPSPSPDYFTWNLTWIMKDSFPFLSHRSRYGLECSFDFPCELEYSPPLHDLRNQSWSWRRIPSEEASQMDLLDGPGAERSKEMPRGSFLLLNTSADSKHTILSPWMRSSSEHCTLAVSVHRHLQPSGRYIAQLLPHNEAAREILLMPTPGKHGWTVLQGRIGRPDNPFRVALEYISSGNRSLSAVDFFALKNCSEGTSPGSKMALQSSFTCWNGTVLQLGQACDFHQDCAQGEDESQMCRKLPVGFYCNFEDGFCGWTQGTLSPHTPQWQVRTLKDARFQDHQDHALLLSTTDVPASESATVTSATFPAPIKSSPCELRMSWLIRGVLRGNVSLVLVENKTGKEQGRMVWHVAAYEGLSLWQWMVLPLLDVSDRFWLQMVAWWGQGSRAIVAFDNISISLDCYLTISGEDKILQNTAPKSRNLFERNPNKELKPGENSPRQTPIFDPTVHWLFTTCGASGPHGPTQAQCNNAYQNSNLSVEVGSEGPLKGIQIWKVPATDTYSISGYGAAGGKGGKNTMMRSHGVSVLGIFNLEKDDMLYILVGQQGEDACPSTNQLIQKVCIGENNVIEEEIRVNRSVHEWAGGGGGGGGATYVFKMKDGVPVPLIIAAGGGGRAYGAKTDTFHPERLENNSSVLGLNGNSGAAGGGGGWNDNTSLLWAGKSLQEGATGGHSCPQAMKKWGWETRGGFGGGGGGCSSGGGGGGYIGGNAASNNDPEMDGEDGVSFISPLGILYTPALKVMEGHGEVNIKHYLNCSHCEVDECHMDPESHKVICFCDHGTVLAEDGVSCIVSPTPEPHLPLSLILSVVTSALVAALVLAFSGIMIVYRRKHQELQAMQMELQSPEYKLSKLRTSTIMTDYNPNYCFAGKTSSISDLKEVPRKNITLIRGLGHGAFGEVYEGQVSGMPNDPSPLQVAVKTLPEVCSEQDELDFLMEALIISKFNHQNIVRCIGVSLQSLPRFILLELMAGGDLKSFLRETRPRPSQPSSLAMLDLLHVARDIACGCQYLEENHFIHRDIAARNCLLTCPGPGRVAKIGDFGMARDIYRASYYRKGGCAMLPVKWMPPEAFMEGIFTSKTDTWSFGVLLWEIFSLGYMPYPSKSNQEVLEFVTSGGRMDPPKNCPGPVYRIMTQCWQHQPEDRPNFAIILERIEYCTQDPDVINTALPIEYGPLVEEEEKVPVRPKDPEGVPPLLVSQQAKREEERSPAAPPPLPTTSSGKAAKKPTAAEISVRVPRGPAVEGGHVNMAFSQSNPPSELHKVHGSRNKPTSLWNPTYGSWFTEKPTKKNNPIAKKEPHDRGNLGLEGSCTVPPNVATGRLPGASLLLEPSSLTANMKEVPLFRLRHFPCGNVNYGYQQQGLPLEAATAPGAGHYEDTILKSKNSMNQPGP
T9 sequence (Q8IY84 whole entry): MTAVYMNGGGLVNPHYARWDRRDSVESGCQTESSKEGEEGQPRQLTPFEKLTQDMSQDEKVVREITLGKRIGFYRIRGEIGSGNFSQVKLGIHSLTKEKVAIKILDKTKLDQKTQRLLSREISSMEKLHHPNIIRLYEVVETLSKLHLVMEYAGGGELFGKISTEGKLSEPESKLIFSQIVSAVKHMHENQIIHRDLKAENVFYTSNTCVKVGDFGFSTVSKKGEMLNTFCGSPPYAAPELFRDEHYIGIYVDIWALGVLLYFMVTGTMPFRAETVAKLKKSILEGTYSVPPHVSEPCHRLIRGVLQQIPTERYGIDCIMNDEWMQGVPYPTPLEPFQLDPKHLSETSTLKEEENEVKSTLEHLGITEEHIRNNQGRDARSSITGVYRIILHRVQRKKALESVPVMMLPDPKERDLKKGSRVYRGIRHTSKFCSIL
T26 sequence (P05771 whole entry): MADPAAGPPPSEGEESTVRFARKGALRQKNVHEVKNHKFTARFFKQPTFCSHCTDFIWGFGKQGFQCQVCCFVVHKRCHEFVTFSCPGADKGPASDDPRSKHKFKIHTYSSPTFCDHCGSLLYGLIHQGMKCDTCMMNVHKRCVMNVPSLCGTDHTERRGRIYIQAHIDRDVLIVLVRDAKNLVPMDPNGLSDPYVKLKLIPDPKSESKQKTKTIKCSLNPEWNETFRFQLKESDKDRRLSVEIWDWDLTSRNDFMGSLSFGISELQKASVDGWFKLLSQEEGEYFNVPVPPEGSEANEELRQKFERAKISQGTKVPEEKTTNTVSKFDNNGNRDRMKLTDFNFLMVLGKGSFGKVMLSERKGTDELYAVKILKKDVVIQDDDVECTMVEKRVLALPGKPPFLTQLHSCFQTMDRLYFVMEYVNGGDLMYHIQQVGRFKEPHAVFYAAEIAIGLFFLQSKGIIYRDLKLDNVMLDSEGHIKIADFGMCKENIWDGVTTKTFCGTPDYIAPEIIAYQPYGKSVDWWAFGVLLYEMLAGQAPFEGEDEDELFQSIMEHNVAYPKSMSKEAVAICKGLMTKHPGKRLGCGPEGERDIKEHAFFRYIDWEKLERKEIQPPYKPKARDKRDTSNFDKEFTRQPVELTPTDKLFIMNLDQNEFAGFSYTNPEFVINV

Structure (SMILES): CCn1cnc2c(NCc3ccc(-c4ccccn4)nc3)nc(-c3ccc(N)nc3)nc21 [Compound 30d, N-([2,2′-Bipyridin]-5-ylmethyl)-2-(6-aminopyridin-3-yl)-9-ethyl-9H-purin-6-amine]
- remaining activity at 10 µM (SBK1): 94.5%
- remaining activity at 10 µM (MST1): 62.2%
- remaining activity at 10 µM (MYO3A): 71.3%
- remaining activity at 10 µM (MLCK): 63.4%
- inhibition at 10 µM (CDK1/cyclinB): > 95%
- remaining activity at 10 µM (CDK1/cyclinB): 2.1%
- remaining activity at 10 µM (CSNK1A1): 26.5%
- remaining activity at 10 µM (MKK4): 96.4%
- remaining activity at 10 µM (ARAF): 79.5%
- remaining activity at 10 µM (NIM1): 76%
- remaining activity at 10 µM (CHEK2): 7.4%
- remaining activity at 10 µM (TAOK1): 28.1%
- remaining activity at 10 µM (BRK): 46.6%
- remaining activity at 10 µM (FYN): 81%
- remaining activity at 10 µM (MASTL): 103%
- remaining activity at 10 µM (DRAK1): 79.3%
- remaining activity at 10 µM (PAK5): 7.6%
- remaining activity at 10 µM (ROCK2): 92.3%
- remaining activity at 10 µM (FRK): 43.5%
- remaining activity at 10 µM (p70S6Kb/RPS6KB2): 92.2%
- remaining activity at 10 µM (DMPK2): 92.4%
- remaining activity at 10 µM (DDR1): 50.2%
- remaining activity at 10 µM (AKT2): 100%
- remaining activity at 10 µM (ARK5): 20.8%
- remaining activity at 10 µM (MEK3): 73.5%
- remaining activity at 10 µM (MST3): 47%
- remaining activity at 10 µM (PKCb1): 89.9%
- remaining activity at 10 µM (NEK7): 93.2%
- remaining activity at 10 µM (IKK-alpha): 71.5%
- remaining activity at 10 µM (PRKCG): 49.6%
- remaining activity at 10 µM (MARK4): 66.9%
- remaining activity at 10 µM (NEK3): 86.6%
- remaining activity at 10 µM (YES): 20.6%
- remaining activity at 10 µM (EPHA3): 7.8%
- remaining activity at 10 µM (MYLK3): 105%
- remaining activity at 10 µM (MERTK): 71%
- inhibition at 10 µM (DYRK1A): > 95%
- remaining activity at 10 µM (DYRK1A): 3.9%
- remaining activity at 10 µM (TRKB): 16.5%
- remaining activity at 10 µM (LATS2): 77.4%
- remaining activity at 10 µM (IGF1R): 58%
- remaining activity at 10 µM (SLK): 69.5%
- remaining activity at 10 µM (NEK4): 95.8%
- remaining activity at 10 µM (ALK): 59.7%
- remaining activity at 10 µM (LIMK2): 76.5%
- remaining activity at 10 µM (PLK3): 94.4%
